Data taken from patent US6867210B2, “Aryl substituted pyrimidines” (Euro-Celtique S.A., priority 2000, dated 2005).
pKi: −log10 of the molar value. Structures can show the parent of a compound that is named as a salt. Where two headings read alike, the source gives them in different places.

How the values were obtained:
[1] = biological target: rBIIa/beta 1 sodium channels expressed in Xenopus oocytes (Rattus norvegicus, UniProt P04775); test: Electrophysiological Assay 2: two-electrode voltage clamp in Xenopus oocytes; assay type: cell-based; conditions: apparent Ki for the inactivated state from single point inhibition data, read-out: RBIIA/β1 Ki
Experimental: Electrophysiological Assay 2 was used to measure potencies of compounds of the present invention rBIIa/beta 1 sodium channels expressed in Xenopus oocytes.
Preparation of cRNA encoding cloned rat brain type IIa (rBIIa) and beta 1 (β1): cDNA clones encoding the rat brain beta 1 subunit were cloned in house using standard methods, and mRNA were prepared by standard methods. mRNA encoding rBIIa was provided by Dr. A. Golden (UC Irvine). The mRNAs were diluted and stored at −80° C. in 1 μL aliquots until injection.
Preparation of oocytes: Mature female Xenopus laevis were anaesthetized (20-40 min) using 0.15% 3-aminobenzoic acid ethyl ester (MS-222) following established procedures (Woodward, R. M., et al., Mol. Pharmacol. 41:89-103 (1992)).
Two to six ovarian lobes were surgically removed. Oocytes at developmental stages V-VI were dissected from the ovary, oocytes were still surrounded by enveloping ovarian tissues. Oocytes were defolliculated on the day of surgery by treatment with collagenase (0.5 mg/mL Sigma Type I, or Boehringer Mannheim Type A, for 0.5-1 hr). Treated oocytes were vortexed to dislodge epithelia, washed repeatedly and stored in Barth's medium containing 88 mM NaCl, 1 mM KCl, 0.41 mM CaCl2, 0.33 mM Ca(NO3)2, 0.82 mM MgSO4, 2.4 mM NaHCO3, 5 mM HEPES, pH 7.4 adjusted with 0.1 mg/mL gentamycin sulphate.
Micro-injection of oocytes: Defolliculated oocytes were micro-injected using a Nanoject injection system (Drummond Scientific Co., Broomall, Pa.). Injection pipettes were beveled to minimize clogging. Tip diameter of injection pipettes was 15-35 μm. Oocytes were microinjected with approximately 50 nL 1:10 ratio mixtures of cRNAs for rBIIa and beta 1 respectively.
Electrophysiology: Membrane current responses were recorded in frog Ringer solution containing 115 mM NaCl, 2 mM KCl, 1.8 mM CaCl2, 5 mM HEPES, pH 7.4. Electrical recordings were made using a conventional two-electrode voltage clamp (Dagan TEV-200) over periods ranging between 1-7 days following injection. The recording chamber was a simple gravity fed flow-through chamber (volume […] depending on adjustment of aspirator). Oocytes were placed in the recording chamber, impaled with electrodes and continuously perfused (5-15 mL min^−1) with frog Ringer's solution. The tested compounds were applied by bath perfusion.
Voltage protocols for evoking sodium channel currents: The standard holding potential for whole oocyte clamp was −120 mV. Standard current-voltage relationships were elicited by 40 ms depolarizing steps starting from −60 mV to +50 mV in 10 mV increments. Peak currents were measured as the maximum negative current after depolarizing voltage steps. The voltage from maximum current response was noted and used for the next voltage protocol.
The purpose was to find compounds that are state dependent modifiers of neuronal sodium channels. Preferably, the compounds have a low affinity for the rested/closed state of the channel, but a high affinity for the inactivated state. The following voltage protocol was used to measure a compounds affinity for the inactivated state. Oocytes were held at a holding potential of −120 mV. At this membrane voltage, nearly all of the channels would be in the closed state. Then a 4 second depolarization was made to the voltage where the maximum current was elicited. At the end of this depolarization, nearly all the channels would be in the inactivated state. A 10 ms hyperpolarizing step was then made in order to remove some channels from the incativated state. A final depolarizing test pulse was used to assay the sodium current after this prolonged depolarization (see analysis below). Sodium currents were measured at this test pulse before and after the application of the tested compound. Data was acquired using pClamp 8.0 software and analyzed with clampfit software (Axon instruments). […]

[2] = tested on: maximal electroshock-induced seizures (MES); test: Maximum electroshock seizure test (MES), anticonvulsant evaluation; assay type: in vivo; conditions: Mus musculus, mice
Source text: The compounds of the present invention may be tested for in vivo anticonvulsant activity after i.v., p.o. or i.p. injection using a number of anticonvulsant tests in mice, including the maximum electroshock seizure test (MES). Maximum electroshock seizures were induced in male NSA mice weighing between 15-20 g and male Sprague-Dawley rats weighing between 200-225 g by application of current (50 mA, 60 pulses/sec, 0.8 msec pulse width, 1 sec duration, D.C., mice; 99 mA, 125 pulses/sec, 0.8 msec pulse width, 2 sec duration, D.C., rats) using a Ugo Basile ECT device (Model 7801). Mice were restrained by gripping the loose skin on their dorsal surface and saline-coated corneal electrodes were held lightly against the two corneae. Rats were allowed free movement on the bench top and ear-clip electrodes were used. […] A tonic seizure was defined as a hindlimb extension in excess of 90 degrees from the plane of the body. Results were treated in a quantal manner.
The ability of 4-[4-(4-fluorophenoxy)phenyl]-pyrimidine-2-carboxamide to block maximal electroshock-induced seizures (MES) was determined according to the method above.
4-[4-(4-Fluorophenoxy)phenyl]-pyrimidine-2-carboxamide was administered p.o. to mice 30 minutes before the test procedure.
The following compounds on Table 1 were tested accordingly after a p.o. administration and also after an i.v. injection. The compounds were injected i.v. 15 minutes before the test procedure.

[3] = iv, i.v. injection 15 minutes before the test, read-out: MES i.v. ED50
[4] = po, p.o., 30 minutes before the test, ED50 = dose protecting 50% of animals, read-out: MES p.o. ED50

Row | Compound | pKi [1] | ED50 [2, 3] [mg/kg] | ED50 [2, 4] [mg/kg]
1 | CC(C)(C)c1ccc(-c2cccc(C(N)=O)n2)cc1 [Compound 8a, 6-(4-tert-butylphenyl)pyridine-2-carboxamide] | 5.21 | – | –
2 | COC(=O)c1ccnc(-c2ccc(Oc3ccc(F)cc3)cc2)n1 [2-[4-(4-fluorophenoxy)phenyl]pyrimidine-4-carboxylic acid methyl ester] | 4.15 | – | –
3 | O=CNC(=O)c1nccc(-c2ccc(Oc3ccc(F)cc3)cc2)n1 [4-[4-(4-fluorophenoxy)phenyl]pyrimidine-2-carboxylic acid hydroxymethyleneamide] | 5.45 | 1.5 | 5
4 | CNC(=O)c1nccc(-c2ccc(Oc3ccc(F)cc3)cc2)n1 [4-[4-(4-Fluorophenoxy)phenyl]-pyrimidine-2-carboxylic acid methylamide] | – | 2.8 | 6.1
5 | O=C(c1nccc(-c2ccc(Oc3ccc(F)cc3)cc2)n1)C(Br)Br [1-[4-[4-(4-fluorophenoxy)phenyl]pyrimidine-2-yl]-2,2-dibromoethanone] | 4.97 | – | –
6 | CCOC(=O)c1nccc(-c2ccc(Oc3ccc(F)cc3)cc2)n1 [4-[4-(4-Fluorophenoxy)phenyl]-pyrimidine-2-carboxylic acid ethyl ester] | 5.01 | – | –
7 | Fc1ccc(Oc2ccc(-c3ccnc(-c4ccno4)n3)cc2)cc1 [2-(5-isoxazolyl)-4-[4-(4-fluorophenoxy)phenyl]pyrimidine] | 5.58 | – | –
8 | O=C(NCCCl)c1nccc(-c2ccc(Oc3ccc(F)cc3)cc2)n1 [4-[4-(4-fluorophenoxy)phenyl]pyrimidine-2-carboxylic acid 2-chloroethylamide] | 5.58 | – | –
9 | CN(C)C=NC(=O)c1ccnc(-c2ccc(Oc3ccc(Cl)cc3F)cc2)n1 [2-[4-(4-chloro-2-fluorophenoxy)phenyl]pyrimidine-4-carboxylic acid dimethylaminomethyleneamide] | – | 1.5 | 4.1
10 | NC(=O)c1ccc(-c2ccc(Oc3ccc(F)cc3)cc2)nc1C(N)=O [6-[4-(4-fluorophenoxy)phenyl]pyridine-2,3-dicarboxamide] | 5.34 | – | –
11 | COc1cc(C(=O)NCCN(C)C)nc(-c2ccc(Oc3ccc(F)cc3)cc2)c1 [Compound 19, 4-Methoxy-6-[4-(4-fluorophenoxy)phenyl]pyridine-2-carboxylic acid dimethylaminoethylamide] | 6.49 | – | –
12 | Cc1cc(N(C)C)cc(-c2ccc(Oc3ccc(F)cc3)cc2)n1 [Compound 14, 2-Methyl-4-dimethylamino-6-[4-(4-fluorophenoxy)phenyl]pyridine] | 6.48 | – | –
13 | CN(C)C(=O)c1cc(N(C)C)nc(-c2ccc(Oc3ccccc3)cc2)n1 [2-(4-phenoxyphenyl)-6-(dimethylamino)pyrimidine-4-carboxylic acid dimethylamide] | – | 2.1 | –
14 | O=C(NCCN1CCCCC1)c1cccc(-c2ccc(Oc3ccc(F)cc3)cc2)n1 [Compound 3, 6-[4-(4-fluorophenoxy)Phenyl]Pyridine Carboxylic Acid N-piperidinylethylamide] | 7.22 | – | –
15 | CCOc1ccc(-c2cccc(C(N)=O)n2)cc1 [Compound 8e, 6-(4-ethoxyphenyl)pyridine-2-carboxamide] | 4.23 | – | –
16 | COc1ccc(-c2cccc(C(N)=O)n2)cc1 [Compound 8f, 6-(4-methoxyphenyl)pyridine-2-carboxamide] | 4.62 | – | –

Second part, led by results:

Row | pKi [1] | Compound | ED50 [2, 3] [mg/kg] | ED50 [2, 4] [mg/kg]
17 | 4.92 | N#Cc1ccc(C(N)=O)nc1-c1ccc(Oc2ccccc2)cc1 [5-cyano-6-(4-phenoxyphenyl)pyridine-2-carboxamide] | – | –
18 | 5.06 | 4-[4-(4-fluorophenoxy)phenyl]pyrimidine-2-carbamate | – | –
19 | 5.07 | Cc1nc(-c2ccc(Oc3ccc(F)cc3)cc2)ccc1C(N)=O [2-methyl-6-[4-(4-fluorophenoxy)phenyl]pyridine-3-carboxamide] | – | –
20 | 4.56 | CN(C)c1nccc(-c2ccc(Oc3ccc(F)cc3)cc2)n1 [2-dimethylamino-4-[4-(4-fluorophenoxy)phenyl]pyrimidine] | – | –
21 | 4.98 | CCCCc1ccc(-c2cccc(C(N)=O)n2)cc1 [Compound 8b, 6-(4-n-butylphenyl)pyridine-2-carboxamide] | – | –
22 | 4.94 | CNC=NC(=O)c1nccc(-c2ccc(Oc3ccc(F)cc3)cc2)n1 [4-[4-(4-fluorophenoxy)phenyl]pyrimidine-2-carboxylic acid methylaminomethyleneamide hydrochloride] | – | –
23 | 4.28 | CSc1ccc(-c2cccc(C(N)=O)n2)cc1 [Compound 8d, 6-(4-thiomethylphenyl)pyridine-2-carboxamide] | – | –
24 | 4.38 | CC(C)c1ccc(-c2cccc(C(N)=O)n2)cc1 [Compound 8c, 6-(4-i-propylphenyl)pyridine-2-carboxamide] | – | –
25 | 3.86 | COC(=O)c1nccc(-c2ccc(Oc3ccc(F)cc3F)cc2)n1 [4-[4-(2,4-difluorophenoxy)phenyl]pyrimidine-2-carboxylic acid methyl ester] | – | –
26 | 4.00 | NC(=O)c1ccc(O)c(-c2ccc(Oc3ccccc3)cc2)n1 [5-hydroxy-6-(4-phenoxyphenyl)pyridine-2-carboxamide] | – | –
27 | 5.95 | NC(=O)c1nccc(-c2ccc(Oc3ccc([N+](=O)[O-])cc3)cc2)n1 [4-[4-(4-Nitrophenoxy)phenyl]-pyrimidine-2-carboxamide] | 3.1 | 10
28 | 5.46 | COc1cc(C(N)=O)nc(-c2ccc(Oc3ccc(F)cc3)cc2)c1 [Compound 18, 4-Methoxy-6-[4-(4-fluorophenoxy)phenyl]pyridine-2-carboxamide] | – | –
29 | 5.23 | Fc1ccc(Oc2ccc(-c3ccnc(-c4nc[nH]n4)n3)cc2)cc1 [2-[3-(1,2,4-triazolyl)]-4-[4-(4-fluorophenoxy)phenyl]pyrimidine] | – | –
